A short description of data set [1]: Oxidation stability of the quinone (oxygen, radical initiator, 150° C.). To be noted: 0.04 mole quinone in 100 ml 1,2-dichlorobenzene, 10 mg azo-bis-isobutyronitrile, excess oxygen, after 24 h. The format is physicochemical.
Procedure: After the addition of 10 mg azo-bis-isobutyronitrile as radical initiator the mixture was agitated under excess of oxygen at 150° C. with a gassing agitator. After 24 h the quinone content was determined by chromatography.
Data set [2] is described as follows: Maximum H2O2 capacity in continuous cyclic anthraquinone process test system. The settings on record: compared with EAQ. On the procedure:
A working solution consisting of 75% by volume aromatic benzine (C9/C10-alkyl aromatic mixture), 25% by volume tris (2-ethylhexylphosphate), 0.11 mol/l 2-ethylanthraquinone, 0.29 mol/l 2-ethyltetrahydroanthraquinone, 0.13 mol/l 2-isohexylanthraquinone and 0.12 mol/l 2-isohexyltetrahydroanthraquinone was tested in a test system for the cyclic process of the anthraquinone method for producing hydrogen peroxide, consisting of the method steps of hydrogenation, oxidation, and extraction as well as of drying, regeneration and purification concerning the maximum H2O2 production capacity obtainable in continuous operation (g H2O2 produced per liter working solution). […]
The maximum H2O2 capacity of a working solution consisting of 75 by volume aromatic benzine (C9/C10-alkyl aromatic mixture), 25% by volume tris (2-ethylhexyl) phosphate, 0.12 mol/l 2-ethylanthraquinone, 0.28 mol/l 2-ethyltetrahydroanthraquinone, 0.13 mol/l 2-amylanthraquinone and 0.12 mol/l 2-amyltetrahydroanthraquinone was determined analogously to example 6. […]
The maximum H2O2 capacity of a working solution whose solvent system was based essentially on a C9/C10-aromatic benzine and tetrabutylurea (volumetric ratio AB:TBH approximately 3:1) was determined analogously to example 6 at a hydrogenation temperature of 60° C. […]

Turning to `CC(C)=CCCc1ccc2c(c1)C(=O)c1ccccc1C2=O` [IHEAQ, 2-(4-methyl-3-pentenyl) anthraquinone], in data set [1], the residual quinone content amounted to 41%. The “oxidative degradation under the conditions of the cyclic anthraquinone process” value in data set [2] was “not degraded oxidatively more than EAQ”.
`CCc1ccc2c(c1)C(=O)c1ccccc1C2=O` [EAQ, 2-ethyl anthraquinone, reference compound] yielded a residual quinone content in data set [1] of 90%.
